In publication PMC5372522, “Bioavailability Comparison of Nine Bioselenocompounds In Vitro and In Vivo” (International Journal of Molecular Sciences, 2017):

Tests used:
[1] = parameters: method as in PMID 6076213; conditions: selenyl group versus sulfhydryl group; cited from earlier work
HepG2 cells = test: Cell viability / proliferation assay (CellTiter 96 Aqueous One) in HepG2 cells; conditions: for effect on cell proliferation: 24 h exposure; for dose at which cytotoxicity / reduced cell viability was seen / effect on cell viability / proliferation: 48 h exposure; for dose from which toxicity was dose-dependent: 24 and 48 h exposure
Description: (§1) Caco-2 cells were used in the in vitro permeability assay in the next experiment, and the cytotoxicity of bioselenocompounds was assayed 6 h after exposure to evaluate the harmful effects of bioselenocompounds on the cells. The cytotoxicity and/or proliferative effects of bioselenocompounds on HepG2 cells were analyzed 24 and 48 h after exposure.
(§2) A human colon carcinoma cell line (Caco-2) and a human hepatocyte carcinoma cell line (HepG2) were obtained from Riken BioResource Center (Wako, Japan). The composition of the passaging medium for Caco-2 or HepG2 was Eagle’s Minimum Essential Medium (MEM) with 20% FBS, 1% non-essential amino acid (NEAA), and 1% penicillin-streptomycin, or Dulbecco’s Modified Eagle’s Medium (DMEM) with 10% FBS and 1% penicillin-streptomycin, respectively. Caco-2 cells were seeded on a 96-well plate at 5500 cells/well and incubation was carried out for 2 days. […] Cell viability was determined by the CellTiter 96® Aqueous One Solution Cell Proliferation Assay (Promega, Madison, WI, USA) based on mitochondrial respiratory activity. HepG2 cells were seeded on a 96-well plate at 5000 cells/well and incubation was carried out for 1 day. Then, the cells were exposed to a Se compound, and cell viability was determined by using the same protocol as that mentioned above.

Caco-2 cells [2] = test: Cell viability assay (CellTiter 96 Aqueous One) in Caco-2 cells; conditions: 6 h exposure; for dose at or above which cell viability was significantly reduced: p < 0.05
Description: as §1, §2

Caco-2 cells [3] = test: In vitro permeability assay using Caco-2 cell monolayers; assay type: in vitro ADME, human; conditions: for permeability in the presence of Met: with 10 mM Met versus without
Description: The bioselenocompounds were evaluated and compared in accordance with the standard protocol of the in vitro permeability assay using Caco-2 cells.
Figure 3 Permeability from the apical side to the basolateral side of Caco-2 cells. The permeability of the nine bioselenocompounds was compared (a). A 500 μL aliquot of fresh medium containing 1 μg Se/mL of each bioselenocompound was poured into the insert and the medium in the lower chamber was collected after 90 min. Values and bars are means ± SD for 3 wells. Statistical analysis was performed by the Tukey test. […] The effects of Met on the permeability of SeMet and MeSeCys were evaluated (b). Hatched and solid bars represent with and without 10 mM Met, respectively. Points and bars are means ± SD for 3 wells. Statistical analysis include the one-way analysis of variance followed by the Student’s t-test. The level of significance was set at p < 0.05, and is indicated by an asterisk (*).
Confluent Caco-2 cells at the cell density of around 20,000 cells/cm^2 were harvested by trypsinization and suspended in basal medium (Corning, Corning, NY, USA) containing MITO+ Serum Extender (Corning) at the cell density of 4 × 10^5 cells/mL. A 0.5 mL aliquot of the cell suspension was seeded on the inserts of a Falcon 24-Multiwell Insert System (Corning). The inserts were transferred onto a 24-well plate that contained 1 mL of basal medium, and incubation was carried out for 24 h. Then, the basal medium was carefully removed from the wells and the inserts, and 1.0 and 0.5 mL aliquots of the differentiation medium (Entero-STIM) containing MITO+ Serum Extender (Corning) were added to the wells and the inserts, respectively. The plate was incubated for another 3 days to induce the formation of a monolayer of differentiated Caco-2 cells. The medium was carefully removed from the inserts and the inserts were washed with transport buffer (HBSS + 10 mM HEPES, pH 7.4). Then, a 350 μL aliquot of each Se compound solution in transport buffer or this solution with 10 mM L-methionine (Wako) was added to the insert chamber. These inserts were transferred onto a plate and a 50 μL aliquot was withdrawn from the chamber of each insert for measurement of the initial concentration of the donor chamber. One milliliter of transfer buffer was added to the plate wells and the plate was incubated on an orbital shaker at 37 °C for 90 min in a CO2 incubator. The transport buffer in the lower chamber was collected to determine Se concentration 90 min after the incubation. Se concentrations were measured by an inductively coupled plasma mass spectrometer (ICP-MS, Agilent 7700cx, Agilent, Hachiouji, Japan). The Se compound solution in the chamber of each insert was removed and a 300 μL aliquot of 300 μM Lucifer Yellow (LY) solution was added to the upper chamber. Then, the concentration of LY that permeated the lower chamber was determined by a fluorescence photometer (excitation wavelength: 485 nm, emission wavelength: 538 nm). Monolayers producing 0.3%–2.0% LY flux were recognized as intact monolayers of differentiated Caco-2 cells. Monolayers with flux exceeding 2.0% were excluded from the experiment.

Caco-2 and HepG2 cells = test: Proliferative effect under standard culture conditions for Caco-2 and HepG2 cells; assay type: cell-based, human; conditions: data not shown
Description: as §2

[4] = parameters: method as in PMID 26243445; conditions: cited from earlier work
[5] = test system: extracellular glutathione peroxidase (GPX3); test: Bioavailability in vivo: recovery of serum GPX3 in Se-deficient rats by LC-ICP-MS; conditions: oral 10 μg Se/rat once a day for 2 days, serum 24 h after administration
Description: (§3) Two major serum selenoproteins were detected by LC-ICP-MS (Figure 4a). The peak detected at the retention time of 11.0 min was assigned to extracellular glutathione peroxidase (GPX3), and the peak at the retention time of 13.5 min was assigned to selenoprotein P (SELENOP) according to our previous literature. The abbreviations of the selenoproteins (GPX3 and SELENOP) were adopted in accordance with the latest nomenclature. We used the recovery amounts of serum selenoproteins in Se-deficient rats as the index of Se bioavailability when a selenocompound was administered to an Se-deficient rat. […] Sera sampled from rats administered each bioselenocompound were analyzed for the recovery of Se in the form of selenoproteins by LC-ICP-MS, and their bioavailabilities, namely, the assimilation of Se into GPX3 and SELENOP, are summarized in Figure 4c,d, respectively. Coinciding with a previous study, SELENOP was more efficiently recovered than GPX3 in the Se-deficient rats 24 h after the repletion of the bioselenocompounds except for TMSe^+. There were no significant differences in the recovery of GPX3 among all the bioselenocompounds except for TMSe^+ (Figure 4c). As SELENOP was more efficiently recovered, the recovery of SELENOP by all the bioselenocompounds except TMSe^+ was more obvious than that of GPX3 (Figure 4d). […] Therefore, there were no significant differences in the bioavailability in vivo among all the bioselenocompounds except TMSe^+.
(§4) Specific pathogen free (SPF) male Wistar rats (4 weeks of age) were purchased from Japan SLC (Shizuoka, Japan) and were housed in a humidity-controlled room maintained at 25 ± 2 °C with a 12 h light-dark cycle. The rats were fed a commercial diet (MF, Oriental Yeast Co., Ltd., Tokyo, Japan) and tap water ad libitum. After a one-week acclimation period, diet and water were changed to a Se-deficient diet (Oriental Yeast) and Milli-Q water (18.3 MΩ·cm), respectively. The rat fed the Se-deficient diet and the Milli-Q water for 3 weeks was used as an Se-deficient rat. The rats continuously fed the commercial diet and tap water served as the positive control.
(§5) The Se-deficient rats were orally administered each Se compound in saline at a dose of 10 μg Se/rat once a day for 2 consecutive days. The saline-administered rats served as the negative control. All the rats were sacrificed 24 h after administration by exsanguination under anesthesia. Non-heparinized blood was collected and clotted blood was centrifuged at 1600× g for 10 min to obtain serum. A 20 μL aliquot of the serum was applied to an HPLC coupled with an ICP-MS to analyze the distribution of Se. […]

[6] = test system: selenoprotein P (SELENOP); test: Bioavailability in vivo: recovery of serum SELENOP in Se-deficient rats by LC-ICP-MS; conditions: oral 10 μg Se/rat once a day for 2 days, serum 24 h after administration
Description: as §3, §4, §5

[7] = Caco-2 monolayer, 1 μg Se/mL, 90 min, mean ± SD for 3 wells

N[C@@H](CS)C(=O)O [Cys]
pKa [1]: 8.3

C[Se]C[C@H](N)C(=O)O [MeSeCys, Se-Methylseleno-L-cysteine]
effect on cell proliferation (HepG2 cells): stimulated the proliferation
dose at which cytotoxicity / reduced cell viability was seen (HepG2 cells): ≥ 40 μg Se/mL
effect on cell viability / proliferation (HepG2 cells): still induced the cell proliferation at low doses
dose from which cell viability was significantly increased (proliferation) (Caco-2 cells [2]; dose-dependent): ≥ 0.8 μg Se/mL
permeability in the presence of Met (Caco-2 cells [3]; Caco-2 monolayer): reduced

CSCC[C@H](N)C(=O)O [Met, L-methionine]
proliferative effects (Caco-2 and HepG2 cells): no proliferative effects

N#C[Se-].[K+] [SeCN^−, potassium selenocyanate]
toxicity relative to selenite [4]: less toxic than selenite
recovery of serum GPX3 (assimilation of Se) [5]: comparable to selenite
dose at which cytotoxicity / reduced cell viability was seen (HepG2 cells): 80 μg Se/mL
recovery of serum SELENOP (assimilation of Se) [6]: comparable to selenite
percentage permeation (Caco-2 cells [3]; [7]): 3.8% ± 0.44%

N[C@@H](C[Se][Se]C[C@H](N)C(=O)O)C(=O)O [SeCys2, L-selenocystine]
dose from which toxicity was dose-dependent (HepG2 cells): ≥ 0.4 μg Se/mL
dose at or above which cell viability was significantly reduced (Caco-2 cells [2]): ≥ 0.8 μg Se/mL

N[C@@H](C[SeH])C(=O)O [SeCys, selenocysteine]
pKa [1]: 5.2

C[Se]CC[C@H](N)C(=O)O [SeMet, seleno-L-methionine]
effect on cell proliferation (HepG2 cells): stimulated the proliferation
effect on cell viability / proliferation (HepG2 cells): marginal cytotoxicity rather than a proliferative effect
permeability in the presence of Met (Caco-2 cells [3]; Caco-2 monolayer): reduced

C[Se]C1OC(CO)C(O)C(O)C1NC(C)=O (stereo not drawn) [SeSug1, Se-methylseleno-N-acetylgalactosamine]
recovery of serum GPX3 (assimilation of Se) [5]: equivalent effect to selenite
recovery of serum SELENOP (assimilation of Se) [6]: equivalent effect to selenite

C[Se+](C)C.[I-] [TMSe^+, Trimethylselenonium iodide]
recovery of serum GPX3 (assimilation of Se) [5]: did not have any apparent effects
recovery of serum SELENOP (assimilation of Se) [6]: did not have any apparent effects
percentage permeation (Caco-2 cells [3]; Caco-2): 3% ± 0.42%

O=[Se]([O-])[O-].[Na+].[Na+] [selenite, Sodium selenite]
recovery of serum GPX3 (assimilation of Se) [5]: recovery of both selenoproteins was observed
dose from which toxicity was dose-dependent (HepG2 cells): ≥ 0.8 μg Se/mL
recovery of serum SELENOP (assimilation of Se) [6]: recovery of both selenoproteins was observed
dose at or above which cell viability was significantly reduced (Caco-2 cells [2]): ≥ 8.0 μg Se/mL
percentage permeation (Caco-2 cells [3]; [7]): 3.4% ± 0.066%

Lucifer Yellow [LY, reference compound]
percentage permeation (Caco-2 cells [3]; Caco-2): 0.81% ± 0.36%

S-methylcysteine [MeCys]
proliferative effects (Caco-2 and HepG2 cells): no proliferative effects
